For the assay, the system named is Gr-1+CD11b+ myeloid cells from Tgfbr2^myeKO. Kind of assay: Expression of IL-10, IL-4 and PF4 (Western blotting, quantitative PCR) in sorted Gr-1+CD11b+ myeloid cells cultured with pathway inhibitors. Format: cell-based, mice. The following applies: myeloid cells lacking Tgfbr2, cultured 6 hours with inhibitor; mRNA level and protein level. The method, then: Gr-1+CD11b+ myeloid cells were sorted with MACS from Tgfbr2^myeKO and cultured for 6 hours with an inhibitor of GSK3 (SB216763, Sigma) or PI3K (LY294002, Calbiochem) at different doses (2, 5, and 10 μM for the GSK3 inhibitor; 5, 10, and 20 μM for the PI3K inhibitor). SB216763 is a potent and selective ATP-competitive inhibitor of the serine/threonine protein kinas GSK α and β. […] GSK3 Western blotting was performed to detect inhibiting activity. The expression of IL-10, IL-4, and PF4 was examined using Western blotting and quantitative PCR.
For orientation: Immunoblotting shows a protein as a band on a membrane.

`Cc1ccc2nc(NCCN)c3ncc(C)n3c2c1` [BMS-345541]: the “expression of IL-10, IL-4, and PF4” value is recorded as “did not show a significant effect”.
Under `Cn1cc(C2=C(c3ccc(Cl)cc3Cl)C(=O)NC2=O)c2ccccc21` [SB216763] stands “reversed the down-regulation of IL-10, IL-4, and PF4”.

The values are drawn from patent US9868954B2, “Reduction of TGFβ signaling in myeloid cells in the treatment of cancer” (The United States of America, as represented by the …, priority 2011, dated 2018).
